Several values for one entry are separate records, joined by “and”; a condition that tells them apart may be missing. Identical values can stand only once.
Assays:
Type in all cases: in vivo
[1] = system: larval ticks (I. scapularis); test: Systemic efficacy of fipronil diet on larval ticks fed on laboratory mice; conditions: for Replete Ticks: individual mice; for Replete Ticks, Total: 8 mice
Experimental: To investigate the systemic efficacy of fipronil against ticks, diet compositions formulated with the compound were presented to treatment mice while an EPA challenge diet, without insecticide, was presented to control mice. Diet compositions were presented for 48 hours. Water was supplied ad libitum. Feed consumption was monitored throughout the study. After 48-hours, mice were removed from their cages and 50-70 I. scapularis were applied to each mouse by first placing mice in 50 ml centrifuge tubes will multiple holes in them. Holes were created by melting the centrifuge tube with a soldering iron. Ticks were then applied and mice remained restrained in the tubes for 2-5 hours, thereby allowing the ticks to attach. The mice were placed in cages suspended over water in a humidity chamber maintaining humidity between 60-80%. Water underneath the suspended mice was checked daily for the presence of ticks falling from the mice. The number of fed and unfed ticks was recorded. Water pans were checked for 6 days. The ticks were kept at 21° C., 90% humidity and a light cycle of 16L:8D. Pans were checked for 5 days. The end-point for the insecticides were larval tick mortality after exposure.
Study 1a: A Diet Composition Containing 970-ppm Fipronil Diet was Formulated Using Inert Ingredients of Rolled Oats, Corn Meal, Powdered Sugar and Corn Oil.
The diet was exposed to laboratory mice for 48 hours.
Study 2a: A Diet Composition Containing 485-ppm Fipronil Diet was Formulated and Exposed to Laboratory Mice for 48 Hours.
The diet was exposed to laboratory mice for 48 hours. Ticks were applied directly to the mice.

[2] = system: larval ticks (I. scapularis); test: as above; conditions: diet compositions containing 960-ppm fipronil (so in the source)
German cockroaches = test: Cockroach mortality on rodent challenge diet fortified with imidacloprid; conditions: EPA challenge diet fortified with 250 mg/kg imidacloprid
Experimental: To determine if rodent diet compositions containing imidacloprid would be effective at controlling cockroaches, German cockroaches were received from a commercial supplier and placed in a sealed container. Rodent “challenge diet”, the EPA standard rodent diet formulation, fortified with 250 mg/kg imidacloprid was placed in the cage. Water was supplied by a wet cotton wick. The mortality of cockroaches consuming diet was 100%.

X. cheopis fleas = test: Flea mortality on rats fed imidacloprid or imidacloprid/piperonyl butoxide diet
Experimental: For example, an investigation was conducted into the ability of piperonyl butoxide to potentiate the insecticidal activity of orally administered imidacloprid to rats challenged with fleas. Piperonyl butoxide compound is known to produce significant decreases in hepatic cytochrome P450 in rats (Dalvi and Dalvi 1991). Because imidacloprid is also metabolized by cytochrome P450 in rats (Schulz-Jander et al. 2002), decreasing the metabolism rate of imidacloprid in the rat (i.e., the rate at which imidacloprid is metabolized by the rat) may increase the availability and therefore the toxicity of the compound to fleas as well as possibly increasing the residual action of the insecticide. Four rats were evaluated for each test diet. Rats were individually housed in individual cages. Rats were housed in cages measuring 24×40.5×18 cm (L×W×H). The floor area measured 972 cm^2. Tap water in glass bottles with stainless steel sipper tubes was available ad libitum. Cages were suspended from shelves on two, single-sided racks. Rats were placed in cages identified by a consecutive number 1-8 and a descriptor for their sex (e.g. M or F). PBO Technical (Prentox®) was received from Prentiss Inc. (Floral Park, N.Y., Lot# 41428). Diet composition was made using the following recipes:
The imidacloprid (Imi) diet composition was formulated at 167 mg/kg imidacloprid. The imidacloprid/PBO diet composition was formulated at 169 mg/kg imidacloprid and 1% PBO. Diets were mixed and presented no-choice to rats for 24 hours. Flea feeding capsules, containing fleas (X. cheopis) were secured to the rats and remained attached for 5 hrs. After exposure, the flea feeders were removed and placed in the humidity chamber until the following morning. Fleas were then evaluated for mortality and morbidity (Table 5).

| SMILES | Replete Ticks ([1]; 485 ppm fipronil diet 48 hours, 70 ticks applied per mouse) | Replete Ticks, Total ([1]; 485 ppm fipronil diet, 70 ticks each, control total 162) | Replete Ticks ([1]; 970-ppm fipronil diet 48 hours, 50 ticks applied per mouse) | Replete Ticks, Total ([1]; 970-ppm fipronil diet, 50 ticks each, control total 12) | prevents ticks from feeding to repletion ([1]; fipronil formulated at 485 mg/kg in diet) | preventing ticks from feeding to repletion [2] | mortality of cockroaches consuming diet (German cockroaches) [%] | Total fleas dead/recovered (X. cheopis fleas; 4 rats per diet, pooled) | Total Percent Mortality (%) (X. cheopis fleas; 4 rats per diet, Imi 167 mg/kg, Imi/pip 169 mg/kg imidacloprid and 1% PBO) | # Fleas Dead/# Fleas Recovered (X. cheopis fleas; individual rats, diet 24 hours, flea capsules attached 5 hrs, Imi 167 mg/kg, Imi/pip 169 mg/kg imidacloprid and 1% PBO) |
| --- | --- | --- | --- | --- | --- | --- | --- | --- | --- | --- |
| N#Cc1nn(-c2c(Cl)cc(C(F)(F)F)cc2Cl)c(N)c1[S+]([O-])C(F)(F)F (stereo not shown) [Fipronil, fipronil] | 0 | 0 | 0 | 0 | prevents ticks from feeding to repletion | effective at preventing ticks from feeding to repletion |  |  |  |  |
| O=[N+]([O-])NC1=NCCN1Cc1ccc(Cl)nc1 [Imidacloprid, imidacloprid] |  |  |  |  |  |  | 100 | (71/85) | 83.5 | 20/24 and 18/18 and 15/15 and 18/28 |

Reference: patent publication US7943160B2, “Pest control methods” (priority 2002, dated 2011)
